Laboratory results reported in US20230270767A1, “INHIBITORS OF ENPP1 AND METHODS OF USING SAME” (The Regents of the University of California, priority 2017, published 2023).

Tests used:
C3H mice = assay: Post injury cardiac calcification after cardiac cryo injury in mice (gross inspection, micro CT, biochemical calcium measurement); format: in vivo, mouse; conditions: for post injury cardiac calcification on gross inspection: ENPP1 inhibitor by continuous infusion (mini pump) for 2 days prior to cardiac injury and 5 days after injury, compared to vehicle; for reduction in calcium deposits in the injured hearts (biochemical measurements): ENPP1 inhibitor by continuous infusion for 2 days prior to and 5 days after injury, p<0.05; for decrease in calcific deposits / calcification on micro CT with 3D reconstruction: ENPP1 inhibitor by continuous infusion for 2 days prior to cardiac injury and 5 days after injury, compared to vehicle treated animals
From the text: We next investigated whether cardiac fibroblasts can adopt osteoblast cell like fates in vivo and directly contribute to ectopic calcification of the myocardium. To address this question, we created three murine models of myocardial calcification and determined with lineage trace techniques whether genetically labeled cardiac fibroblasts adopted an osteoblast phenotype and contributed to heart calcification in vivo. Cardiac injury or aging in certain strains of mice (e.g. C3H/HeJ, BALB/cByJ, DBA/2J) can lead to the development of calcification within the myocardium (Glass et al., 2013);(Ivandic et al., 1996);(Korff et al., 2006). We used several different methods to induce myocardial injury in C3H strain of mice. First, we administered high dose systemic steroids daily for 10 days which is known to induce myocyte necrosis (Sparks et al., 1955). […] Finally, ischemic injury of the myocardium by ligating the left anterior descending (LAD) coronary artery, (Korff et al., 2006) led to patchy calcification of the injury region within 4 weeks of ischemic insult (Cell Stem Cell (2017) 20:1-15, the FIGURE). Consistent with the known association of fibrosis and calcification, we observed calcification only in regions where there was fibrosis (identified by Masson trichrome staining) (Cell Stem Cell (2017) 20:1-15, the FIGURE).
Calcification of the extracellular matrix is critically regulated by the balance of extracellular phosphate (Pi) and pyrophosphate (PPi) (Terkeltaub, 2001). Pyrophosphate is generated at the cell surface by the enzyme ectonucleotide pyrophosphatase/phosphodiesterase-1 (ENPP1) that breaks down ATP to AMP and PPi. Pyrophosphate is well recognized to inhibit calcium hydroxyapatite mineralization (Rutsch et al., 2011) in non-skeletal tissues, but in bone and teeth, pyrophosphate promotes mineralization by serving as a substrate for tissue non specific alkaline phosphatase that hydrolyzes pyrophosphate to generate inorganic phosphate (Terkeltaub, 2006). ENPP1 is expressed in osteoblasts, thought to regulate osteoblast maturation and bone mineralization and animals deficient in ENPP1 have decreased mineralization of long bones (Johnson et al., 2003). Considering the importance of ENPP1 in mineralization of the skeleton, we examined whether ENPP1, a gene identified by us to be differentially expressed (by RNA-seq) between calcific and non-calcified cardiac regions was contributing to ectopic cardiac calcification. We first confirmed our observation and subjected C3H mice and B6 mice to cryo-induced cardiac injury. […] Immunostaining for ENPP1 confirmed that ENPP1 was expressed in uninjured B6 hearts (Cell Stem Cell (2017) 20:1-15, the FIGURE) and was more abundant following injury (Cell Stem Cell (2017) 20:1-15, the FIGURE). […] We next determined whether cardiac fibroblasts in the injury region were a source of increased ENPP1 expression. We subjected Col1a2CreERT:R26R^tdTomato mice hearts to cardiac injury and observed abundant expression of ENPP1 by tdTomato labeled cardiac fibroblasts in calcified regions. (Cell Stem Cell (2017) 20:1-15, the FIGURE). Extracellular pyrophosphate generated by ENPP1 can induce mineralization of tissues by precipitating out as calcium pyrophosphate dihydrate (CPPD) or serving as a substrate for phosphate generation and formation of calcium hydroxyapatite. To distinguish between these two, we performed Raman spectroscopy (Chen et al., 2009) and observed that the myocardial calcific deposits comprised calcium hydroxyapatite and not pyrophosphate dihydrate (Cell Stem Cell (2017) 20:1-15, the FIGURE). PPi generated by ENPP1 can be hydrolyzed by tissue non-specific alkaline phosphatase (TNAP) to Pi. The heart is known to express TNAP and we confirmed that both injured and uninjured cardiac tissue is rich in tissue non-specific alkaline phosphatase (TNAP) (Cell Stem Cell (2017) 20:1-15, the FIGURE). […]

C3H animals = assay: Echocardiography of cardiac function after cardiac cryo-injury; format: in vivo, mouse
From the text: We next investigated the physiologic significance of inhibiting cardiac calcification on cardiac function. In a subset of C3H animals, we performed echocardiography to determine cardiac function prior to cardiac cryo-injury and following administration of etidronate. […] Etidronate had no effect on sham injured hearts (Cell Stem Cell (2017) 20:1-15, the FIGURE).

[1] = post injury, compared to vehicle treated control animals

| SMILES | post injury cardiac calcification on gross inspection (C3H mice) | reduction in calcium deposits in the injured hearts (biochemical measurements) (C3H mice) | decrease in calcific deposits / calcification on micro CT with 3D reconstruction (C3H mice) | amount of deposited calcium (C3H mice; administered after the development of calcification, data not shown) | calcification on gross inspection or on CT scans (C3H mice; administered one day prior to cardiac cryo injury and then daily till hearts were harvested) | calcific phenotype (C3H mice; administered one day prior to cardiac cryo injury and then daily till hearts were harvested, vs vehicle injected controls) | post injury cardiac function (C3H animals; C3H animals, cardiac cryo-injury, echocardiography) | Ejection fraction (C3H animals; following injury) | fractional shortening (C3H animals; following injury) | systolic function (C3H animals; injured animals, echocardiography) | left ventricular end diastolic diameter (LVEDD) (C3H animals; [1]) | left ventricular end systolic diameter (LVESD) (C3H animals; [1]) | effect on sham injured hearts (C3H animals; sham injured hearts) |
| --- | --- | --- | --- | --- | --- | --- | --- | --- | --- | --- | --- | --- | --- |
| CCN(CC)c1ncnc2c1ncn2[C@@H]1O[C@H](COP(=O)([O-])OP(=O)([O-])C(Br)(Br)P(=O)([O-])O)C(O)C1O.[Na+].[Na+].[Na+] (stereo partly shown) [ARL67156] | significantly inhibited calcification | 79% | 85% |  |  |  |  |  |  |  |  |  |  |
| O=C(/C=C/c1ccc(O)c(O)c1)O[C@H](Cc1ccc(O)c(O)c1)C(=O)O [SYL-001, rosmarinic acid] | decreased post injury cardiac calcification | 35% | 42% |  |  |  |  |  |  |  |  |  |  |
| CC(O)(P(=O)(O)O)P(=O)(O)O [etidronate, etidronic acid] |  |  |  | did not reverse or decrease the amount of deposited calcium | no calcification was seen | completely rescued the calcific phenotype | significant preservation of post injury cardiac function | substantially better | substantially better | better systolic function | significantly decreased | significantly decreased | no effect |
